Source: patent publication US8802597B2, “Herbicidal pyrimidines” (E I du Pont de Nemours and Company, priority 2003, dated 2014)

Experiments:
Format in all cases: in vivo
[1] = tested on: wild oat (Avena fatua); assay: Test B postemergence; conditions: scale 0 to 100 (0 no effect, 100 complete control)
In short: (§1)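 Following sowing, compounds in a surfactant-bearing non-phytotoxic solvent were applied preemergence; emerged plants 2 to 18 cm high got postemergence treatment concurrently. Evaluation: 13 to 15 days later, greenhouse, 0–100 visual scale.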

[2] = tested on: blackgrass (Alopecurus myosuroides); assay: Test B postemergence; conditions: scale 0 to 100 (0 no effect, 100 complete control)
In short: as §1

[3] = tested on: barnyardgrass (Echinochloa crus-galli); assay: Test B pre/postemergence; conditions: for Barnyardgrass plant response rating: Postemergence; for Plant response rating, Barnyardgrass: Preemergence
In short: as §1

[4] = tested on: wheat (Triticum aestivum); assay: Test B pre/postemergence; conditions: for Wheat plant response rating: Postemergence; for Plant response rating, Wheat: Preemergence
In short: as §1

[5] = tested on: Surinam grass (Brachiaria decumbens); assay: Test B pre/postemergence; conditions: for Surinam Grass plant response rating: Postemergence; for Plant response rating, Surinam Grass: Preemergence
In short: as §1

[6] = tested on: velvetleaf (Abutilon theophrasti); assay: Test B pre/postemergence; conditions: for Velvetleaf plant response rating: Postemergence; for Plant response rating, Velvetleaf: Preemergence
In short: as §1

[7] = tested on: crabgrass (Digitaria sanguinalis); assay: Test B pre/postemergence; conditions: for Crabgrass plant response rating: Postemergence; for Plant response rating, Crabgrass: Preemergence
In short: as §1

[8] = tested on: cocklebur (Xanthium strumarium); assay: Test B pre/postemergence; conditions: for Cocklebur plant response rating: Postemergence; for Plant response rating, Cocklebur: Preemergence
In short: as §1

[9] = tested on: morningglory (Ipomoea coccinea); assay: Test B pre/postemergence; conditions: for Morningglory plant response rating: Postemergence; for Plant response rating, Morningglory: Preemergence
In short: as §1

[10] = tested on: lambsquarters (Chenopodium album); assay: Test B pre/postemergence; conditions: for Lambsquarters plant response rating: Postemergence; for Plant response rating, Lambsquarters: Preemergence
In short: as §1

[11] = tested on: giant foxtail (Setaria faberii); assay: Test B pre/postemergence; conditions: for Foxtail, Giant plant response rating: Postemergence; for Plant response rating, Foxtail, Giant: Preemergence
In short: as §1

[12] = tested on: pigweed (Amaranthus retroflexus); assay: Test B pre/postemergence; conditions: for Pigweed plant response rating: Postemergence; for Plant response rating, Pigweed: Preemergence
In short: as §1

[13] = tested on: corn (Zea mays); assay: Test B pre/postemergence; conditions: for Corn plant response rating: Postemergence; for Plant response rating, Corn: Preemergence
In short: as §1

[14] = tested on: barnyardgrass (Echinochloa crus-galli); assay: Test B flooded paddy test; conditions: Flood, scale 0 to 100
In short: (§2)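 Visual injury scoring (0 = no effect, 100 = complete control) versus controls made 13 to 15 days after treatment in the greenhouse. Test species were grown in flooded paddy to the 2-leaf stage: rice, barnyardgrass, umbrella sedge, duck salad.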

[15] = tested on: rice (Oryza sativa); assay: Test B flooded paddy test; conditions: Flood, scale 0 to 100
In short: as §2

[16] = tested on: duck salad (Heteranthera limosa); assay: Test B flooded paddy test; conditions: Flood, scale 0 to 100
In short: as §2

[17] = tested on: umbrella sedge (Cyperus difformis); assay: Test B flooded paddy test; conditions: Flood, scale 0 to 100
In short: as §2

[18] = 62 g ai/ha, scale 0 to 100 (0 no effect, 100 complete control)
[19] = 125 g ai/ha, scale 0 to 100 (0 no effect, 100 complete control)
[20] = 62 g ai/ha, scale 0 to 100, 0 no effect, 100 complete control

CCCOC(=O)c1nc(C2CC2)nc(N)c1Cl [Compound 75]
Oat, Wild plant response rating ([1]; 62 g ai/ha): 50 | Oat, Wild plant response rating ([1]; 125 g ai/ha): 60 | Blackgrass plant response rating ([2]; 62 g ai/ha): 50 | Blackgrass plant response rating ([2]; 125 g ai/ha): 60 | Barnyardgrass plant response rating [3, 18]: 80 | Barnyardgrass plant response rating [3, 19]: 90 | Plant response rating, Barnyardgrass [3, 20]: 60 | Plant response rating, Barnyardgrass [3, 19]: 80 | Wheat plant response rating [4, 18]: 50 | Wheat plant response rating [4, 19]: 70 | Plant response rating, Wheat [4, 20]: 30 | Plant response rating, Wheat [4, 19]: 70 | Surinam Grass plant response rating [5, 18]: 70 | Surinam Grass plant response rating [5, 19]: 80 | Plant response rating, Surinam Grass [5, 20]: 70 | Plant response rating, Surinam Grass [5, 19]: 80 | Velvetleaf plant response rating [6, 18]: 70 | Velvetleaf plant response rating [6, 19]: 100 | Plant response rating, Velvetleaf [6, 20]: 80 | Plant response rating, Velvetleaf [6, 19]: 100 | Crabgrass plant response rating [7, 18]: 70 | Crabgrass plant response rating [7, 19]: 80 | Plant response rating, Crabgrass [7, 20]: 80 | Plant response rating, Crabgrass [7, 19]: 90 | Cocklebur plant response rating [8, 18]: 70 | Cocklebur plant response rating [8, 19]: 100 | Plant response rating, Cocklebur [8, 20]: 90 | Plant response rating, Cocklebur [8, 19]: 90 | Morningglory plant response rating [9, 18]: 100 | Morningglory plant response rating [9, 19]: 100 | Plant response rating, Morningglory [9, 20]: 80 | Plant response rating, Morningglory [9, 19]: 100 | Lambsquarters plant response rating [10, 18]: 90 | Lambsquarters plant response rating [10, 19]: 100 | Plant response rating, Lambsquarters [10, 20]: 100 | Plant response rating, Lambsquarters [10, 19]: 100 | Foxtail, Giant plant response rating [11, 18]: 60 | Foxtail, Giant plant response rating [11, 19]: 80 | Plant response rating, Foxtail, Giant [11, 20]: 30 | Plant response rating, Foxtail, Giant [11, 19]: 90 | Pigweed plant response rating [12, 18]: 80 | Pigweed plant response rating [12, 19]: 90 | Plant response rating, Pigweed [12, 20]: 100 | Plant response rating, Pigweed [12, 19]: 100 | Corn plant response rating [13, 18]: 60 | Corn plant response rating [13, 19]: 70 | Plant response rating, Corn [13, 20]: 50 | Plant response rating, Corn [13, 19]: 80 | Plant response rating, Barnyardgrass ([14]; 125 g ai/ha): 0 | Plant response rating, Barnyardgrass ([14]; 500 g ai/ha): 70 | Plant response rating, Rice ([15]; 125 g ai/ha): 0 | Plant response rating, Rice ([15]; 500 g ai/ha): 70 | Plant response rating, Ducksalad ([16]; 125 g ai/ha): 0 | Plant response rating, Ducksalad ([16]; 500 g ai/ha): 70 | Plant response rating, Sedge, Umbrella ([17]; 125 g ai/ha): 0 | Plant response rating, Sedge, Umbrella ([17]; 500 g ai/ha): 10
